Assay results taken from patent publication US20100240674A1 (priority 2007, published 2010).
Where a name gives a salt, the structure may show the parent alone.

Experiments:
NPC mice = assay: Hanging Test (locomotor activity); assay type: in vivo; conditions: 50 mg/Kg daily intraperitoneally for 28 days, vs saline
Description: To test locomotor activity, the Hanging Test that has been validated for these mice was used (Voikar et al., 2002). For this test a score from 0 to 5 was assigned to the mice based on their motor capabilities. To determine the score, the animal is observed during 30 seconds, a value is assigned according to the following scale: 0, if it falls before 10 seconds; 1, if it hangs from the bar with its fore paws; 2, if it tries to climb on the bar with its hind paws; 3, if it grabs the bar with its fore paws and one or two hind paws; 4, if it grabs the bar with all four paws and its tail; and 5, if it actively escapes from the bar and reaches one of the ends of the bar.

[1] = system: cerebellar Purkinje neurons
Description: In all experiments discussed herein, “NPC mice” refers to mice deficient in the NPC1 protein or NPC1−/−. In FIG. 1, the cerebellums of 4 week old NPC mice and wild type mice are shown at a, b, g and h. The cerebellums of 6 week old NPC mice and wild type mice are shown at c, d, i and j. The cerebellums of 8 week old NPC mice and wild type mice are shown at e, f, k and l. The immunohistochemical procedures utilized were: anti-c-Abl, (K12; 1:500) and anti-p73 (H-79; 1:250) (Santa Cruz Biotech, Santa Cruz, Calif.), and anti-calbindin D-28K (1:1,000). Immunohistochemical procedures were carried out by means of histological stain on floating sections. Immunocytochemistry was performed using the avidin biotin horseradish peroxidase complex (ABC) method (Vector Laboratories, Burlingame, Calif.) and sections were mounted on gelatin pre-coated slides and air-dried, then dehydrated in graded ethanol and finally covered with Permount.
The immunohistochemical protocols used are the same as those described above relating to FIG. 1.
The following process was used for in situ apoptosis detection: the terminal deoxynucleotidyl transferase mediated deoxyuridine-biotin (dUTP) nick end labeling (TUNEL) was performed using the apoptosis detection kit purchased from Roche Molecular Biochemicals (Mannheim, Germany). The sections were first incubated in a blocking solution containing 3% H2O2 in methanol. Afterward, slices were incubated in 0.1% Triton X-100 in 0.1% sodium citrate over-night at RT to increase the permeability. After being washed twice in PBS, pH 7.4, the sections were immersed in the TUNEL reaction mixture, containing dUTP-fluorescein and terminal deoxynucleotidyl transferase (TdT) conjugated for 60 minutes at 37° C. in a dark, humid atmosphere. The process was terminated by washing the sections twice in PBS buffer. For the immunofluorescence (IF) sections slides were incubated overnight with rabbit polyclonal anti-calbindin D-28K (1:1,000; Chemicon International, Temecula, Calif.). […] Fluorescent images were captured with an Olympus BX51 microscope and analyzed with IMAGE pro-express.

cerebella of NPC mice = assay: TUNEL immunofluorescence apoptosis analysis on cerebella; conditions: 50 mg/Kg daily intraperitoneally for 28 days, vs saline

Cc1ccc(NC(=O)c2ccc(CN3CCN(C)CC3)cc2)cc1Nc1nccc(-c2cccnc2)n1 [imatinib mesylate, 4-(4-methylpiperazin-1-ylmethyl)-N-[4-methyl-3-((4-pyridin-3-yl)(pyrimidin-2-ylamino)phenyl]benzamide methanesulfonate]
Hanging Test score (NPC mice; NPC mice): increased the scores | effect on locomotor activity (Hanging Test) (NPC mice; wild type mice): does not affect the locomotor activity | calbindin positive areas for Purkinje neurons ([1]; NPC mice, 50 mg/Kg daily intraperitoneally for 28 days, immunofluorescence): significant increase | death of Purkinje neurons (calbindin immunohistochemistry) ([1]; NPC mice, 50 mg/Kg daily intraperitoneally for 28 days, vs saline): reduces the death of Purkinje neurons | calbindin staining ([1]; mouse, in vivo, ip, 50 mg/kg): does not affect the calbindin staining | apoptosis in cerebella (TUNEL) (cerebella of NPC mice): decreases apoptosis | number of TUNEL positive cells (cerebella of NPC mice): significantly less
